Results: patent publication US12054486B2, “Pyridine derivatives and their use as sodium channel activators” (Xenon Pharmaceuticals Inc., priority 2021, dated 2024)

These compounds were tested against sodium channel isoforms of interest stably expressed in Human Embryonic Kidney Cells (voltage-gated sodium channel, particularly NaV1.1) (Homo sapiens, UniProt P35498) (assay: automated planar patch clamp assay of sodium channel gating (area under the sodium current trace)). Conditions: HEK cells, voltage step from −120 mV to 0 mV, increasing concentrations.
Format: cell-based
Source text: A typical assay described in Crestey, F. et al., ACS Chem Neurosci (2015), Vol. 6, pp. 1302-1308, AA43279 (Frederiksen, K. et al., Eur J Neurosci (2017), Vol. 46, pp. 1887-1896) and Lu AE98134 (von Schoubyea, N. L. et al., Neurosci Lett (2018), Vol. 662, pp. 29-35) employs the use of automated planar patch clamp techniques to study the effects of the chemical agent on the gating of sodium channels. The sodium channel isoforms of interest are stably expressed in Human Embryonic Kidney Cells and the currents that flow through those channels in response to a depolarizing voltage clamp step from −120 mV to 0 mV are measured in the presence of increasing concentrations of the chemical agents. The area under the sodium current trace which correlates to the magnitude of sodium flux through the cell membrane is used to quantify the effects on gating of the channels. Other parameters that are measured in the assay include the peak current, time constant of open state inactivation and the voltage dependence of steady state inactivation properties. The concentration responses are used to determine potency of each chemical agents effects on modulating the sodium channel isoform gating. Such techniques are known to those skilled in the art, and may be developed, using current technologies, into low or medium throughput assays for evaluating compounds for their ability to modulate sodium channel behaviour.
As disclosed above, typical assays for testing compounds of the disclosure are known, for example as disclosed in Crestey, F. et al., ACS Chem Neurosci (2015), Vol. 6, pp. 1302-1308, AA43279 (Frederiksen, K. et al., Eur J Neurosci (2017), Vol. 46, pp. 1887-1896) and Lu AE98134 (von Schoubyea, N. L. et al., Neurosci Lett (2018), Vol. 662, pp. 29-35) which employs the use of automated planar patch clamp techniques to study the effects of the chemical agent on the gating of sodium channels. The sodium channel isoforms of interest are stably expressed in Human Embryonic Kidney Cells and the currents that flow through those channels in response to a depolarizing voltage clamp step from −120 mV to 0 mV are measured in the presence of increasing concentrations of the chemical agents. The area under the sodium current trace which correlates to the magnitude of sodium flux through the cell membrane is used to quantify the effects on gating of the channels. Other parameters that are measured in the assay include the peak current, time constant of open state inactivation and the voltage dependence of steady state inactivation properties. The concentration responses are used to determine potency of each chemical agents effects on modulating the sodium channel isoform gating.
For `FC1(F)CC2(CN(c3nccc(-c4ccccc4)c3-c3nc4c([nH]3)COCC4)C2)C1` [Example 50, 2-(2-(6,6-difluoro-2-azaspiro[3.3]heptan-2-yl)-4-phenylpyridin-3-yl)-3,4,6,7-tetrahydropyrano[3,4-d]imidazole], the EC50 was 10000 to 50000 nM and the “Empirical Emax” value was “++ (++ indicates a value from 2.0 up to 5.0 μM)”. With `FC(F)(F)C1(CNc2nccc(-c3ccccc3)c2-c2nc3c([nH]2)COCC3)CCC1` [Example 51, 4-phenyl-3-(3,4,6,7-tetrahydropyrano[3,4-d]imidazol-2-yl)-N-((1-(trifluoromethyl)cyclobutyl)methyl)pyridin-2-amine] the EC50 was less than 1000 nM and the “Empirical Emax” value was “+ (+ indicates a value less than 2.0 μM)”. With `CC1(C)Cc2nc(-c3c(-c4ccccc4)ccnc3N3CCC(F)(F)C3)[nH]c2CO1` [Example 52, 2-(2-(3,3-difluoropyrrolidin-1-yl)-4-phenylpyridin-3-yl)-6,6-dimethyl-3,4,6,7-tetrahydropyrano[3,4-d]imidazole] the EC50 was less than 1000 nM and the “Empirical Emax” value was “+++ (+++ indicates a value from 5.0 up to 7.5 μM)”. For `FC1(F)CCN(c2nccc(-c3ccccc3)c2-c2nc3c([nH]2)COC2(CCC2)C3)C1` [Example 53, 2′-(2-(3,3-difluoropyrrolidin-1-yl)-4-phenylpyridin-3-yl)-4′,7′-dihydro-3′H-spiro[cyclobutane-1,6′-pyrano[3,4-d]imidazole]], the EC50 was 1000 to 10000 nM and the “Empirical Emax” value was “++ (++ indicates a value from 2.0 up to 5.0 μM)”. For `CC1(C)OCCc2nc(-c3c(-c4ccccc4)ccnc3N3CCC(F)(F)C3)[nH]c21` [Example 54, 2-(2-(3,3-difluoropyrrolidin-1-yl)-4-phenylpyridin-3-yl)-4,4-dimethyl-3,4,6,7-tetrahydropyrano[3,4-d]imidazole], the EC50 was 1000 to 10000 nM and the “Empirical Emax” value was “+++ (+++ indicates a value from 5.0 up to 7.5 μM)”. With `CC(C)(C)OC(=O)N1CCc2nc(-c3c(-c4ccccc4)ccnc3N3CCC(F)(F)C3)[nH]c2C1` [Example 55, Tert-Butyl 2-[2-(3,3-difluoropyrrolidin-1-yl)-4-phenyl-3-pyridyl]-3,4,6,7-tetrahydroimidazo[4,5-c]pyridine-5-carboxylate] the EC50 was less than 1000 nM and the “Empirical Emax” value was “+++ (+++ indicates a value from 5.0 up to 7.5 μM)”. `Fc1ccc(F)c(-c2ccnc(N3CC[C@H](F)C3)c2-c2nc3c([nH]2)COCC3)c1` [Example 56, (S)-2-(4-(2,5-difluorophenyl)-2-(3-fluoropyrrolidin-1-yl)pyridin-3-yl)-3,4,6,7-tetrahydropyrano[3,4-d]imidazole] was tested, and the EC50 was 1000 to 10000 nM and the “Empirical Emax” value was “++++ (++++ indicates a value greater than 7.5)”. With `CC1(C)Cc2nc(-c3c(-c4cc(F)ccc4F)ccnc3N3CCC(F)(F)C3)[nH]c2CO1` [Example 57, 2-(4-(2,5-difluorophenyl)-2-(3,3-difluoropyrrolidin-1-yl)pyridin-3-yl)-6,6-dimethyl-3,4,6,7-tetrahydropyrano[3,4-d]imidazole] the EC50 was less than 1000 nM and the “Empirical Emax” value was “++++ (++++ indicates a value greater than 7.5)”. `COC1CCc2nc(-c3c(-c4ccccc4)ccnc3N3CC[C@H](F)C3)[nH]c2C1` (stereo partly drawn) [Example 58, 2-(2-((S)-3-fluoropyrrolidin-1-yl)-4-phenylpyridin-3-yl)-6-methoxy-4,5,6,7-tetrahydro-1H-benzo[d]imidazole] was tested, and the EC50 was 1000 to 10000 nM and the “Empirical Emax” value was “++ (++ indicates a value from 2.0 up to 5.0 μM)”. With `COC1CCc2nc(-c3c(-c4ccccc4)ccnc3N3CCC(F)(F)C3)[nH]c2C1` (stereo not drawn) [Example 59, 2-(2-(3,3-difluoropyrrolidin-1-yl)-4-phenylpyridin-3-yl)-6-methoxy-4,5,6,7-tetrahydro-1H-benzo[d]imidazole] the EC50 was less than 1000 nM and the “Empirical Emax” value was “++ (++ indicates a value from 2.0 up to 5.0 μM)”. `FC1(F)CCN(c2nccc(-c3ccccc3)c2-c2nc3c([nH]2)CCCC3)C1` [Example 60, 2-(2-(3,3-difluoropyrrolidin-1-yl)-4-phenylpyridin-3-yl)-4,5,6,7-tetrahydro-1H-benzo[d]imidazole] was tested, and the EC50 was less than 1000 nM and the “Empirical Emax” value was “++ (++ indicates a value from 2.0 up to 5.0 μM)”. With `Cc1[nH]c(-c2c(-c3ccccc3)ccnc2N2CCC(F)(F)C2)nc1-c1ccccc1` [Example 61, 2-(3,3-difluoropyrrolidin-1-yl)-3-(5-methyl-4-phenyl-1H-imidazol-2-yl)-4-phenylpyridine] the EC50 was 1000 to 10000 nM and the “Empirical Emax” value was “++ (++ indicates a value from 2.0 up to 5.0 μM)”. In the case of `CC(C)(C)c1nc(-c2c(-c3ccccc3)ccnc2N2CCC(F)(F)C2)no1` [Example 62, 5-(tert-butyl)-3-(2-(3,3-difluoropyrrolidin-1-yl)-4-phenylpyridin-3-yl)-1,2,4-oxadiazole], the EC50 is reported as 1000 to 10000 nM and the “Empirical Emax” value is reported as “+ (+ indicates a value less than 2.0 μM)”. With `OC1Cc2nc(-c3c(-c4ccccc4)ccnc3N3CCC(F)(F)C3)[nH]c2C1` [Example 63, 2-(2-(3,3-difluoropyrrolidin-1-yl)-4-phenylpyridin-3-yl)-1,4,5,6-tetrahydrocyclopenta[d]imidazol-5-ol] the EC50 was 1000 to 10000 nM and the “Empirical Emax” value was “++ (++ indicates a value from 2.0 up to 5.0 μM)”. `c1ccc(-c2ccnc(N3CCOCC3)c2-c2nc3c([nH]2)COCC3)cc1` [Example 64, 2-(2-morpholino-4-phenylpyridin-3-yl)-3,4,6,7-tetrahydropyrano[3,4-d]imidazole] was tested, and the EC50 was 10000 to 50000 nM and the “Empirical Emax” value was “+ (+ indicates a value less than 2.0 μM)”. With `FC1(F)CN(c2nccc(-c3ccccc3)c2-c2nc3c([nH]2)COCC3)C1` [Example 65, 2-(2-(3,3-difluoroazetidin-1-yl)-4-phenylpyridin-3-yl)-3,4,6,7-tetrahydropyrano[3,4-d]imidazole] the EC50 was no less than 50000 nM and the “Empirical Emax” value was “++ (++ indicates a value from 2.0 up to 5.0 μM)”. For `c1ccc(-c2ccnc(N3CC4(COC4)C3)c2-c2nc3c([nH]2)COCC3)cc1` [Example 66, 2-(4-phenyl-2-(2-oxa-6-azaspiro[3.3]heptan-6-yl)pyridin-3-yl)-3,4,6,7-tetrahydropyrano[3,4-d]imidazole], the EC50 was 1000 to 10000 nM and the “Empirical Emax” value was “+++ (+++ indicates a value from 5.0 up to 7.5 μM)”. `c1ccc(-c2ccnc(OC3CCC3)c2-c2nc3c([nH]2)COCC3)cc1` [Example 67, 2-(2-cyclobutoxy-4-phenylpyridin-3-yl)-3,4,6,7-tetrahydropyrano[3,4-d]imidazole] was tested, and the EC50 was no less than 50000 nM and the “Empirical Emax” value was “+ (+ indicates a value less than 2.0 μM)”. For `F[C@H]1CCN(c2nccc(-c3ccccc3)c2-c2nc3ccccc3o2)C1` [Example 68, (S)-2-(2-(3-fluoropyrrolidin-1-yl)-4-phenylpyridin-3-yl)benzo[d]oxazole], the EC50 was no less than 50000 nM and the “Empirical Emax” value was “+ (+ indicates a value less than 2.0 μM)”. `F[C@H]1CCN(c2nccc(-c3ccccc3)c2-c2nc(-c3ccccc3)n[nH]2)C1` [Example 69, (S)-2-(3-fluoropyrrolidin-1-yl)-4-phenyl-3-(3-phenyl-1H-1,2,4-triazol-5-yl)pyridine] was tested, and the EC50 was 1000 to 10000 nM and the “Empirical Emax” value was “++ (++ indicates a value from 2.0 up to 5.0 μM)”. In the case of `Fc1ccccc1-c1ccnc(N2CCC(F)(F)C2)c1-c1nc2c([nH]1)COCC2` [Example 72, 2-[2-(3,3-difluoropyrrolidin-1-yl)-4-(2-fluorophenyl)-3-pyridyl]-1,4,6,7-tetrahydropyrano[3,4-d]imidazole], the EC50 is reported as less than 1000 nM and the “Empirical Emax” value is reported as “++++ (++++ indicates a value greater than 7.5)”. In the case of `Fc1ccc(F)c(-c2ccnc(N3CCC(F)(F)C3)c2-c2nc3c([nH]2)CCOC3)c1` [Example 73, 2-[4-(2,5-difluorophenyl)-2-(3,3-difluoropyrrolidin-1-yl)-3-pyridyl]-1,4,6,7-tetrahydropyrano[3,4-d]imidazole], the EC50 is reported as less than 1000 nM and the “Empirical Emax” value is reported as “+++ (+++ indicates a value from 5.0 up to 7.5 μM)”. For `FC1(F)CCN(c2nccc(-c3ccc4[nH]ncc4c3)c2-c2nc3c([nH]2)CCOC3)C1` [Example 74, 2-[2-(3,3-difluoropyrrolidin-1-yl)-4-(1H-indazol-5-yl)-3-pyridyl]-1,4,6,7-tetrahydropyrano[3,4-d]imidazole], the EC50 was 1000 to 10000 nM and the “Empirical Emax” value was “++++ (++++ indicates a value greater than 7.5)”. With `Fc1cccc(-c2ccnc(N3CCC(F)(F)C3)c2-c2nc3c([nH]2)CCOC3)c1` [Example 75, 2-[2-(3,3-difluoropyrrolidin-1-yl)-4-(3-fluorophenyl)-3-pyridyl]-1,4,6,7-tetrahydropyrano[3,4-d]imidazole] the EC50 was less than 1000 nM and the “Empirical Emax” value was “++++ (++++ indicates a value greater than 7.5)”.
